The test system of the test is Erysiphe graminis f. sp. tritici. Kind of test: Efficacy against Erysiphe graminis f. sp. tritici on wheat plants (preventive spray treatment). It is filed as in vivo. As to conditions: Blumeria graminis, single active, wheat sprayed at 1-leaf stage, contaminated after 24 hours, graded 7 to 14 days after contamination vs control plants. The procedure:
The active ingredients tested are prepared by potter homogenisation in a mixture of acetone/tween/water. This suspension is then diluted with water to obtain the desired active material concentration.
Wheat plants (Audace variety) in starter cups, sown on 50/50 peat soil-pozzolana substrate and grown at 12° C., are treated at the 1-leaf stage (10 cm tall) by spraying with the aqueous suspension described above.
Plants, used as controls, are treated with an aqueous solution not containing the active material.
After 24 hours, the plants are contaminated by dusting them with Erysiphe graminis f. sp. tritici spores, the dusting being carried out using diseased plants.
Grading is carried out 7 to 14 days after the contamination, in comparison with the control plants.

This passage reports Emax results from patent publication US7670990B2, “Fungicidal composition comprising a pyridylethylbenzamide derivative and a compound capable of inhibiting mitosis and cell division” (Bayer Cropscience S.A., priority 2004, dated 2010).

For orientation: Emax means the size of the effect at its maximum, as opposed to the concentration needed.

`O=C(NCCc1ncc(C(F)(F)F)cc1Cl)c1ccccc1C(F)(F)F` [Compound 1, N-{2-[3-chloro-5-(trifluoromethyl)-2-pyridinyl]ethyl}-2-trifluoromethylbenzamide] returned a maximal response (Emax) at 62.5 g/ha of 42% and an Emax at 125 g/ha of 63%.
For `COC(=O)Nc1nc2ccccc2[nH]1` [Carbendazim, carbendazim], in that order: 0% and 16%.
